We go through four compounds from PubChem BioAssay (NCI).

Some test systems named below: A549 NSCLC; DMS 114 small cell lung; DMS 273 small cell lung; HOP-18 NSCLC; HOP-92 NSCLC; KM20L2 colon; LXFL 529 NSCLC; M19-MEL melanoma; NCI-H522 lung; RXF 393 renal; SK-OV-3 ovarian; SNB-78 CNS.
What all share (assay): NCI-60 cell line screen, 48 h

Values joined by “and” are separate entries in the source; they are usually repeats but may differ in a detail not shown here. Identical values can stand only once.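 Assay format: 96-well plates, 48-hour exposure. At the GI50, growth is halved. The concentration for full growth arrest is given as TGI.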 A value given as a limit tells only on which side of the number the result lay.

For `COC1=C(C)C(=O)c2c(cc3c(c2O)C(C)(CCC=C(C)C)C(C)O3)C1=O` (centres undefined), the TGI in the experiment with A549 NSCLC is 39.8 µM; with DMS 114 small cell lung, over 100 µM; in the experiment on DMS 273 small cell lung, over 86.4 µM; in the experiment on HOP-18 NSCLC, over 78.7 µM; in the experiment on HOP-92 NSCLC it was over 100 µM; with KM20L2 colon it was over 100 µM. Besides, the TGI in the experiment on LXFL 529 NSCLC is over 100 µM; in the experiment on M19-MEL melanoma it was 30.1 µM; in the experiment on NCI-H522 lung it was over 100 µM; with RXF 393 renal, over 100 µM; in the experiment on SK-OV-3 ovarian, over 100 µM; in the experiment with SNB-78 CNS, over 100 µM.

Turning to `COc1cc(C2c3cc4c(cc3[C@@H](NCCN3CCOCC3)C3COC(=O)[C@H]23)OCO4)cc(OC)c1O` (some centres undefined), the GI50 in the experiment with A549 NSCLC is 314 nM and 761 nM; in the experiment with DMS 114 small cell lung, 1430 nM and 2950 nM; in the experiment with SK-OV-3 ovarian, 1490 nM and 3360 nM. For the same compound, the TGI is 2.64 µM and 4.28 µM with A549 NSCLC; 5.05 µM and 8.98 µM with DMS 114 small cell lung; 7.72 µM and 5.44 µM in the experiment on DMS 273 small cell lung; 32.9 µM and > 17.5 µM in the experiment with HOP-18 NSCLC; 4.73 µM and 10.4 µM with HOP-92 NSCLC; 16.7 µM and > 17.5 µM in the experiment on KM20L2 colon. The TGI in the experiment on LXFL 529 NSCLC is 34.1 µM and > 17.5 µM; with NCI-H522 lung, 13.1 µM and 9.66 µM; in the experiment with RXF 393 renal, 9.33 µM and 10.4 µM; in the experiment with SK-OV-3 ovarian, 5.89 µM and 11.3 µM; in the experiment on SNB-78 CNS, over 75 µM.

As for `O=C1c2ccccc2N2Oc3ccccc3C12c1ccccc1` (centres undefined), the TGI in the experiment with A549 NSCLC, with DMS 114 small cell lung, in the experiment on DMS 273 small cell lung, with HOP-18 NSCLC, with HOP-92 NSCLC and with KM20L2 colon was over 100 µM throughout. Besides, the TGI with LXFL 529 NSCLC, in the experiment on M19-MEL melanoma, with NCI-H522 lung, in the experiment with RXF 393 renal, in the experiment on SK-OV-3 ovarian and in the experiment with SNB-78 CNS was over 100 µM each time.

As to `NC(=O)NC12CC3CC(CC(F)(C3)C1)C2`, the TGI with A549 NSCLC, in the experiment on DMS 114 small cell lung, with DMS 273 small cell lung, in the experiment with HOP-92 NSCLC, with KM20L2 colon and in the experiment with LXFL 529 NSCLC was over 100 µM each time. Also, the TGI in the experiment with M19-MEL melanoma, in the experiment on NCI-H522 lung, with RXF 393 renal, with SK-OV-3 ovarian and with SNB-78 CNS was over 100 µM in each case.
